Results taken from patent US20240116985A1, “STAPLED PEPTIDES AND METHODS THEREOF” (priority 2020, published 2024).
Non-standard residues stand in square brackets, D forms with d. Residues, ends and D or L forms follow the SMILES beside them. Bta = N[C@@H](Cc1csc2ccccc12)C(=O)O; tBuAla = CC(C)(C)C[C@H](N)C(=O)O; 3Thi = N[C@@H](Cc1ccsc1)C(=O)O; αMeP = C[C@@]1(C(=O)O)CCCN1; Aib = CC(C)(N)C(=O)O

Target: T1, full-length beta-Catenin (Uniprot ID P35222) (Homo sapiens, UniProt P35222)
T1 construct: 10 nM full-length beta-Catenin (Uniprot ID P35222)
T1 sequence (P35222 1-781): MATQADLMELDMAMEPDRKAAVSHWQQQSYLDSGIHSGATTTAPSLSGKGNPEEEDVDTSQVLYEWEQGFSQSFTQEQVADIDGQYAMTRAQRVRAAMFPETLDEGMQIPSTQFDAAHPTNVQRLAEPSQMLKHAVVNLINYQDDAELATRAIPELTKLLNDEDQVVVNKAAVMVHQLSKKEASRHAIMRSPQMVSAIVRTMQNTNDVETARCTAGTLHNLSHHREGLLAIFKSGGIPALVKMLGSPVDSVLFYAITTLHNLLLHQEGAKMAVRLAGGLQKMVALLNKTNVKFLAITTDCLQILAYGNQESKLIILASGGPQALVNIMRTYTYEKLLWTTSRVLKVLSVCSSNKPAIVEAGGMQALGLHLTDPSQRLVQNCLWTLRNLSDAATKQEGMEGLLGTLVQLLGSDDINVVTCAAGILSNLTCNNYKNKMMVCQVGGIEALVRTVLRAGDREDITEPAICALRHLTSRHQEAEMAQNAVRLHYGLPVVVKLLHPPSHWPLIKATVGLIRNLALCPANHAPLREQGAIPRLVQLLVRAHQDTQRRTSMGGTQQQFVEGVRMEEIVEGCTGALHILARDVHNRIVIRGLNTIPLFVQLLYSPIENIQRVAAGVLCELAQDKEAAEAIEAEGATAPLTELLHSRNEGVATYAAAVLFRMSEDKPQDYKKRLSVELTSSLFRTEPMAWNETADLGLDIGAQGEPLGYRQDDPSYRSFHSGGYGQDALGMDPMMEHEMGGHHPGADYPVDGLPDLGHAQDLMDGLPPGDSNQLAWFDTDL
Assay: Fluorescence polarization IC50 (beta-catenin / 5FAM-TCF4 10-53 competition)
Format: binding
Conditions: fluorescence polarization; read-out: beta-Catenin FP IC50

Row | IC50 | Structure (SMILES)
1 | 8400 nM | CC(=O)N1CCC[C@]12CC=CCCCC1(CCCC=CCCCCC[C@@](C)(C(=O)N[C@@H](Cc3ccsc3)C(=O)N[C@@H](Cc3csc4ccccc34)C(=O)N[C@@H](CCC(N)=O)C(N)=O)NC(=O)[C@H](CC(N)=O)NC(=O)[C@H](Cc3ccccc3)NC(=O)[C@H](C)NC(=O)[C@H](C)NC(=O)[C@H]([C@@H](C)O)NC(=O)[C@H](CC(N)=O)NC1=O)NC(=O)[C@H](CC(C)(C)C)NC(=O)[C@H](CC(=O)O)NC2=O (stereo partly drawn) [I-2200, Ac-PL3-Asp-Npg-B5-Asn-Thr-Ala-Ala-Phe-Asn-S7-3Thi-BztA-Gln-NH2]
2 | 60 nM | CC(=O)N1CCC[C@]12CC=CCCCC1(CCCC=CCCCOC(=O)N3CC[C@@](C(=O)N[C@@H](Cc4ccsc4)C(=O)N[C@@H](Cc4csc5ccccc45)C(=O)N[C@@H](C)C(N)=O)(C3)NC(=O)[C@H](CC(C)C)NC(=O)[C@H](Cc3ccccc3)NC(=O)[C@H](C)NC(=O)C(C)(C)NC(=O)[C@H](Cc3cc(C(=O)O)cc(C(F)(F)F)c3)NC(=O)[C@H](CC(=O)O)NC1=O)NC(=O)[C@H](CC(C)(C)C)NC(=O)[C@H](CC(=O)O)NC2=O (stereo partly drawn) [I-2212, Ac-PL3-Asp-Npg-B5-Asp-5F3Me3COOHF-Aib-Ala-Phe-Leu-PyrS2-3Thi-BztA-Ala-NH2]
3 | 5250 nM | CC(=O)N1CCC[C@]12CC=CCCCC1(CCCC=CCOC(=O)N(C)CC[C@@](C)(C(=O)N[C@@H](Cc3ccsc3)C(=O)N[C@@H](Cc3csc4ccccc34)C(=O)N[C@@H](CCC(N)=O)C(N)=O)NC(=O)[C@H](CC(N)=O)NC(=O)[C@H](Cc3ccccc3)NC(=O)[C@H](C)NC(=O)[C@H](C)NC(=O)[C@H]([C@@H](C)O)NC(=O)[C@H](CC(N)=O)NC1=O)NC(=O)[C@H](CC(C)(C)C)NC(=O)[C@H](CC(=O)O)NC2=O (stereo partly drawn) [I-2213, Ac-PL3-Asp-Npg-B5-Asn-Thr-Ala-Ala-Phe-Asn-SdN-3Thi-BztA-Gln-NH2]
4 | 1860 nM | CC(=O)N1CCC[C@]12CC=CCCCC1(CCCC=CCCCOC(=O)N3CC[C@@](C(=O)N[C@@H](Cc4cccc(-c5ccccc5)c4)C(=O)N[C@@H](Cc4ccccc4)C(=O)N[C@@H](CCC(N)=O)C(N)=O)(C3)NC(=O)[C@H](CC(C)C)NC(=O)[C@H](Cc3ccccc3)NC(=O)[C@H](C)NC(=O)[C@H](C)NC(=O)[C@H](Cc3cccc(C(=O)O)c3)NC(=O)[C@H](CC(=O)O)NC1=O)NC(=O)[C@H](CC(C)(C)C)NC(=O)[C@H](CC(=O)O)NC2=O (stereo partly drawn) [I-2214, Ac-PL3-Asp-Npg-B5-Asp-3COOHF-Ala-Ala-Phe-Leu-PyrS2-[Ph]-3SF-Phe-Gln-NH2]
5 | 1540 nM | CC(=O)N1CCC[C@]12CC=CCCCC1(CCCC=CCCCOC(=O)N3CC[C@@](C(=O)N[C@@H](Cc4cccc(C5CC5)c4)C(=O)N[C@@H](Cc4ccccc4)C(=O)N[C@@H](CCC(N)=O)C(N)=O)(C3)NC(=O)[C@H](CC(C)C)NC(=O)[C@H](Cc3ccccc3)NC(=O)[C@H](C)NC(=O)[C@H](C)NC(=O)[C@H](Cc3cccc(C(=O)O)c3)NC(=O)[C@H](CC(=O)O)NC1=O)NC(=O)[C@H](CC(C)(C)C)NC(=O)[C@H](CC(=O)O)NC2=O (stereo partly drawn) [I-2215, Ac-PL3-Asp-Npg-B5-Asp-3COOHF-Ala-Ala-Phe-Leu-PyrS2-[CyPr]-3SF-Phe-Gln-NH2]
6 | 2140 nM | CC(=O)N1CCC[C@@]1(C)C(=O)N[C@@H](CC(=O)O)C(=O)N[C@@H](CC(C)(C)C)C(=O)NC(C)(C)C(=O)N[C@@H](CC(=O)O)C(=O)N[C@@H](CC(=O)O)C(=O)N[C@@H](C)C(=O)N[C@@H](C)C(=O)N[C@@H](Cc1ccccc1)C(=O)N[C@@H](CCC(N)=O)C(=O)NC(C)(C)C(=O)N[C@@H](Cc1ccsc1)C(=O)N[C@@H](Cc1csc2ccccc12)C(=O)N[C@@H](Cc1c[nH]cn1)C(N)=O [I-2228, Ac-MePro-Asp-Npg-Aib-Asp-Asp-Ala-Ala-Phe-Gln-Aib-3thi-BztA-His-NH2] (Ac-[αMeP]D[tBuAla][Aib]DDAAFQ[Aib][3Thi][Bta]H-NH2)
